Source: patent US11098053B2, “Enhanced osteogenic activity of daidzein analogs on human mesenchymal stem cells” (THE ADMINISTRATORS OF THE TULANE EDUCATIONAL FUND, priority 2013, dated 2021)

How the values were obtained:
ASCs = assay: Osteogenic differentiation of ASCs (alizarin red); details: 14 days; for osteogenic potential of ASCs relative to vehicle, with fulvestrant: 1 μM + 100 nM fulvestrant; for osteogenic potential of ASCs relative to vehicle, with fulvestrant / osteogenic potential of ASCs relative to vehicle, inhibitor study, without fulvestrant: FIG. 12; for osteogenic differentiation (calcium deposition), fold relative to vehicle-treated ASCs: n=6 donors; for osteogenic differentiation (calcium deposition), fold relative to vehicle-treated ASCs / cytotoxicity of ASCs by bright field microscopy, compared to vehicle: estrogen 10 nM, others 1 μM
BMSCs [1] = tested on: BMSCs
[2] = tested on: Human bone marrow derived mesenchymal stem cells (MSCs); assay: Osteogenic differentiation of MSCs (Alizarin Red calcium deposition); details: for osteogenic activity (structure-activity summary, in words): donor MSCs; for osteogenic activity (structure-activity summary, in words) / osteogenesis averaged over all three donors, relative to vehicle treated MSCs: 1 μM; for IC50: read-out: IC50 averaged among the three donors, mean of three donors; for osteogenic differentiation of MSCs, fold relative to vehicle treated MSCs: daidzein 1 μM, genistein 1 μM, Alizarin Red
BMSCs [3] = assay: Osteogenic differentiation of BMSCs (alizarin red); details: 14 days; for osteogenic potential of BMSCs relative to vehicle, with fulvestrant: 1 μM + 100 nM fulvestrant; for osteogenic potential of BMSCs relative to vehicle, with fulvestrant / osteogenic potential of BMSCs relative to vehicle, inhibitor study, without fulvestrant: FIG. 12; for osteogenic differentiation (calcium deposition), fold relative to vehicle-treated BMSCs: n=6 donors; for osteogenic differentiation (calcium deposition), fold relative to vehicle-treated BMSCs / cytotoxicity of BMSCs by bright field microscopy, compared to vehicle: estrogen 10 nM, others 1 μM
[4] = tested on: MSCs (Sp7, ALP, OP, IGF1 transcripts); assay: qRT-PCR of osteogenic transcription factors in MSCs; assay type: cell-based, human; details: pooled MSCs, 1 μM, 14 days
Description: . […] The following primer set sequence for was used: Sp7 forward 5′-CCAGTGTCTACACCTCTC-3′ (SEQ ID NO: 1), reverse 5′-ATGGAGTAGGAGTGTTGC-3′ (SEQ ID NO: 2); IGF-1 forward 5′-CTGTGATCTAAGGAGGCTG-3′ (SEQ ID NO: 3), reverse 5′-[…]-3′ (SEQ ID NO: 4); ALP forward 5′-[…]-3′ (SEQ ID NO: 5), reverse 5′-[…]-3′ (SEQ ID NO: 6); osteopontin forward 5′-[…]-3′ (SEQ ID NO: 7), reverse 5′-[…]-3′ (SEQ ID NO: 8). β-actin forward 5′-[…]-3′ (SEQ ID NO: 9), reverse 3′-[…]-5′ (SEQ ID NO: 10) was used as an internal reference point. At the completion of the reaction, ΔΔCt was calculated to quantify mRNA expression.

[5] = screen, MSCs from one donor (Donor 1), analogs and daidzein 1 μM, estrogen 10 nM, 14 days
[6] = Donor 1, estrogen 10 nM, 14 days
[7] = Donor 2, estrogen 10 nM, 14 days
[8] = Donor 3, estrogen 10 nM, 14 days

## C=CCOc1ccc2c(=O)c(-c3ccc(O)cc3)coc2c1 [2l, 7-(Allyloxy)-3-(4-hydroxyphenyl)-4H-chromen-4-one]
ASCs
  osteogenic potential of ASCs relative to vehicle, with fulvestrant: 1.7 fold
  osteogenic differentiation (calcium deposition), fold relative to vehicle-treated ASCs: 2.2 fold
ASCs; 1 μM
  osteogenic potential of ASCs relative to vehicle, inhibitor study, without fulvestrant: 2.4 fold
BMSCs [1]
  cytotoxicity at higher dosages: nor lead to cytotoxicity
[2]
  differentiation at day 7: enhanced differentiation at day 7
[2]; 14 days
  osteogenic activity (structure-activity summary, in words): marked enhancement
  IC50: 138 nM
  osteogenesis averaged over all three donors, relative to vehicle treated MSCs: 2.0±0.18
[2]; [5]
  induction category of osteogenic differentiation (no, low, high induction): high inducers
BMSCs [3]
  osteogenic potential of BMSCs relative to vehicle, with fulvestrant: 1.5 fold
  osteogenic differentiation (calcium deposition), fold relative to vehicle-treated BMSCs: 1.9 fold
BMSCs [3]; 1 μM
  osteogenic potential of BMSCs relative to vehicle, inhibitor study, without fulvestrant: 2.0 fold

## C#CCOc1ccc2c(=O)c(-c3ccc(O)cc3)coc2c1 [compound 6, 3-(4-Hydroxyphenyl)-7-(prop-2-yn-1-yloxy)-4H-chromen-4-one]
[2]; 14 days
  osteogenic activity (structure-activity summary, in words): only modest osteogenic potential
other
  melting point: 228 to 230 °C

## O=c1c(-c2ccc(O)cc2)coc2cc(OC3CCCC3)ccc12 [2g, 7-Cyclopentyloxy-3-(4-hydroxyphenyl)-4H-chromen-4-one]
ASCs
  osteogenic potential of ASCs relative to vehicle, with fulvestrant: 0.9 fold
  osteogenic differentiation (calcium deposition), fold relative to vehicle-treated ASCs: 2.0 fold
ASCs; 1 μM
  osteogenic potential of ASCs relative to vehicle, inhibitor study, without fulvestrant: 2.0 fold
BMSCs [1]
  cytotoxicity at higher dosages: nor lead to cytotoxicity
[2]; 14 days
  osteogenic activity (structure-activity summary, in words): modest osteogenic activity
  osteogenesis averaged over all three donors, relative to vehicle treated MSCs: 2.0±0.64
BMSCs [3]
  osteogenic potential of BMSCs relative to vehicle, with fulvestrant: 0.8 fold
  osteogenic differentiation (calcium deposition), fold relative to vehicle-treated BMSCs: 1.6 fold
BMSCs [3]; 1 μM
  osteogenic potential of BMSCs relative to vehicle, inhibitor study, without fulvestrant: 1.9 fold

## O=c1c(-c2ccc(O)cc2)coc2cc(O)cc(O)c12 [genistein, reference compound]
ASCs; 6 donors, 1 μM
  ASC donors that did not respond to treatment: 3 of the 6
ASCs
  cytotoxicity of ASCs by bright field microscopy, compared to vehicle: did not demonstrate enhanced cytotoxicity
  osteogenic differentiation (calcium deposition), fold relative to vehicle-treated ASCs: 1.4 fold
[2]; [6]
  osteogenic differentiation of MSCs, fold relative to vehicle treated MSCs: 1.6±0.19 fold
[2]; [7]
  osteogenic differentiation of MSCs, fold relative to vehicle treated MSCs: 1.7±0.02 fold
[2]; [8]
  osteogenic differentiation of MSCs, fold relative to vehicle treated MSCs: 1.0±0.15 fold
BMSCs [3]; 6 donors, 1 μM
  BMSC donors that did not respond to treatment: 2 of the 6
BMSCs [3]
  cytotoxicity of BMSCs by bright field microscopy, compared to vehicle: did not demonstrate enhanced cytotoxicity
  osteogenic differentiation (calcium deposition), fold relative to vehicle-treated BMSCs: 1.4 fold

## CC(C)Oc1ccc2c(=O)c(-c3ccc(O)cc3)coc2c1 [2c, 3-(4-Hydroxyphenyl)-7-isopropoxy-4H-chromen-4-one]
ASCs
  osteogenic differentiation (calcium deposition), fold relative to vehicle-treated ASCs: 1.7 fold
[4]
  ALP expression relative to cells treated with vehicle in ODM: 2.45±0.80
  IGF1 expression relative to cells treated with vehicle in ODM: 26.96±9.19
  OP expression relative to cells treated with vehicle in ODM: 2.68±0.11
  Sp7 expression relative to cells treated with vehicle in ODM: 20.08±4.81
[2]
  differentiation at day 7: enhanced differentiation at day 7
[2]; 14 days
  osteogenic activity (structure-activity summary, in words): marked enhancement
  IC50: 58.2 nM
  osteogenesis averaged over all three donors, relative to vehicle treated MSCs: 2.0±0.41
[2]; [5]
  induction category of osteogenic differentiation (no, low, high induction): high inducers
BMSCs [3]
  osteogenic differentiation (calcium deposition), fold relative to vehicle-treated BMSCs: 1.6 fold

## CC1(C)C=Cc2c(ccc3c(=O)c(-c4ccc(B5OC(C)(C)C(C)(C)O5)cc4)coc23)O1 [compound 8, 8,8-dimethyl-3-(4-(4,4,5,5-tetramethyl-1,3,2-dioxaborolan-2-yl)phenyl)pyrano[2,3-f]chromen-4(8H)-one]
other
  melting point: 228 to 230 °C

## O=c1c(-c2ccc(O)cc2)coc2cc(O)ccc12 [daidzein, Daidzein]
ASCs
  osteogenic potential of ASCs relative to vehicle, with fulvestrant: 1.0 fold
  cytotoxicity of ASCs by bright field microscopy, compared to vehicle: did not demonstrate enhanced cytotoxicity
  osteogenic differentiation (calcium deposition), fold relative to vehicle-treated ASCs: 1.7 fold
ASCs; 1 μM
  osteogenic potential of ASCs relative to vehicle, inhibitor study, without fulvestrant: 1.5 fold
[2]; [6]
  osteogenic differentiation of MSCs, fold relative to vehicle treated MSCs: 1.7±0.19 fold
[2]; [7]
  osteogenic differentiation of MSCs, fold relative to vehicle treated MSCs: 1.7±0.01 fold
[2]; [8]
  osteogenic differentiation of MSCs, fold relative to vehicle treated MSCs: 1.6±0.15 fold
[2]; [5]
  induction category of osteogenic differentiation (no, low, high induction): low inducers
  osteogenic differentiation relative to vehicle treated MSCs in ODM: 1.7±0.3 fold
BMSCs [3]
  osteogenic potential of BMSCs relative to vehicle, with fulvestrant: 1.0 fold
  cytotoxicity of BMSCs by bright field microscopy, compared to vehicle: did not demonstrate enhanced cytotoxicity
  osteogenic differentiation (calcium deposition), fold relative to vehicle-treated BMSCs: 1.5 fold
BMSCs [3]; 1 μM
  osteogenic potential of BMSCs relative to vehicle, inhibitor study, without fulvestrant: 1.7 fold

## CC1(C)CCc2c(ccc3c2OCC(c2ccc(O)cc2)C3=O)O1 (stereo not drawn) [compound 4, 3-(4-Hydroxyphenyl)-8,8-dimethyl-2,3,9,10-tetrahydropyrano[2,3-f]chromen-4(8H)-one]
[2]; 14 days
  osteogenic activity (structure-activity summary, in words): modest potential
other
  melting point: 176 to 180 °C

## CC1(C)C=Cc2c(ccc3c(=O)c(-c4ccc(O)cc4)coc23)O1 [compound 3, 3-(4-Hydroxyphenyl)-8,8-dimethyl-8H-pyrano[2,3f]-chromen-4-one]
[2]; 14 days
  osteogenic activity (structure-activity summary, in words): did not exhibit any osteogenic activity
other
  melting point: 262 to 264 °C

## CC1(C)CCc2c(ccc3c2OCC(c2ccc(O)cc2)C3)O1 (stereo not drawn) [compound 5, 4-(8,8-Dimethyl-2,3,4,8,9,10-hexahydropyrano[2,3-f]chromen-3-yl)phenol]
[2]; 14 days
  osteogenic activity (structure-activity summary, in words): no discernible osteogenic activity

## COc1ccc2c(=O)c(-c3ccc(O)cc3)coc2c1 [2a, 3-(4-Hydroxyphenyl)-7-methoxy-4H-chromen-4-one]
[2]; 14 days
  osteogenic activity (structure-activity summary, in words): modest osteogenic activity
